This passage reports IC50 results from US20260034123A1 (Cedilla Therapeutics, Inc., priority 2022, published 2026).

One assay has as its system Kuramochi cells RB-KO. Description: IncuCyte Kuramochi cell proliferation assay, RB-KO. Conditions: 72 hours, cell count, batch mean. It is filed as cell-based. The protocol:
IncuCyte® assay was used to measure the effect of disclosed compounds on cell proliferation. Fluorescent microscopy images of cells were taken immediately after compound treatment and 72 hours later. Image analysis software was used to obtain cell counts as a function of compound concentration. Kuramochi cells labeled with mApple-H2B were seeded on 384-well assay-ready plates. Plates were placed in an IncuCyte® (Sartorius) and scanned at 0 and 72 hours. IncuCyte® software was used to count the number of fluorescent nuclei in each well. The fold change in cell count from 0 to 72 hours in wells treated with increasing compounds concentrations (10 pts, 1/2 log dilution, 20 µM top concentration) was normalized to DMSO control wells. The normalized cell counts were fit with dose response curves and a GI50 was calculated.

A further assay relates to Kuramochi cells RB-WT. Description: IncuCyte Kuramochi cell proliferation assay, RB-WT. Conditions: 72 hours, cell count. The format is cell-based. Put shortly:
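GI50 was derived by curve-fitting DMSO-normalized fold change in nuclear count between 0 and 72 h. Counts came from images of Kuramochi cells carrying mApple-H2B. Compounds were dosed over 10 points at 1/2-log spacing from a 20 µM top concentration.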

The target of the next assay is CDK2/Cyclin E1 (Homo sapiens, UniProt P24941). Description: ADP-Glo Luminescent Kinase Assay (CDK2/E1-37C). Conditions: 0.18 nM CDK2/Cyclin E1, 100 μM ATP, Histone H1, 37° C.; read-out: ADPGLO (CDK2/E1-37C): IC50. It is filed as biochemical. The method, boiled down: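 IC50 fitted by four-parameter equation from ADP-Glo luminescence converted to % activity. Compounds were preincubated 60 min at 37 °C with enzyme, then kinase reaction ran 90 min at 37 °C with 0.18 nM enzyme, 100 μM ATP, Histone H1 ([…]), pH 7.5 HEPES, Mg2+, DTT.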
(In general: ADP-Glo first removes unused ATP, then detects ADP through luciferase.)

SMILES strings stand for the structures.

In the case of `CC1(C)C[C@@H]1C(=O)N1CC2(CN(C(=O)c3cnn(Cc4ccc(F)cc4C(F)(F)F)c3)C[C@H]2COCc2cccc(C3CCC(F)(F)CC3)c2C(=O)O)C1` [Compound I-118, 2-(4,4-difluorocyclohexyl)-6-(((2-((S)-2,2-dimethylcyclopropane-1-carbonyl)-6-(1-(4-fluoro-2-(trifluoromethyl)benzyl)-1H-pyrazole-4-carbonyl)-2,6-diazaspiro[3.4]octan-8-yl)methoxy)methyl)benzoic acid], the IC50 with Kuramochi cells RB-KO is > 10 µM; in the assay on Kuramochi cells RB-WT, 5 to 10 µM; on CDK2/Cyclin E1 it was ≤ 0.5 µM.
For `CC1(C)C[C@@H]1C(=O)N1CC2(CN(C(=O)c3cnn(Cc4ccc(F)cc4)c3)C[C@H]2COCc2c(F)ccc(C3CCC(F)(F)CC3)c2C(=O)O)C1` [Compound I-119, 6-(4,4-difluorocyclohexyl)-2-(((2-((S)-2,2-dimethylcyclopropane-1-carbonyl)-6-(1-(4-fluorobenzyl)-1H-pyrazole-4-carbonyl)-2,6-diazaspiro[3.4]octan-8-yl)methoxy)methyl)-3-fluorobenzoic acid], the IC50 with Kuramochi cells RB-KO was > 10 µM; with Kuramochi cells RB-WT, 0.5 to 5 µM; at CDK2/Cyclin E1 it was ≤ 0.5 µM.
The matching figures for `CC(C)(C(=O)N1CC2(CN(C(=O)c3cnn(Cc4ccc(F)cc4C(F)(F)F)c3)C[C@H]2COCc2cccc(C3CCC(F)(F)CC3)c2C(=O)O)C1)C(F)(F)F` [Compound I-127, (S)-2-(4,4-difluorocyclohexyl)-6-(((6-(1-(4-fluoro-2-(trifluoromethyl)benzyl)-1H-pyrazole-4-carbonyl)-2-(3,3,3-trifluoro-2,2-dimethylpropanoyl)-2,6-diazaspiro[3.4]octan-8-yl)methoxy)methyl)benzoic acid]: > 10 µM, 0.5 to 5 µM and ≤ 0.5 µM.
The matching figures for `CC1(C)C[C@@H]1C(=O)N1CC2(CN(C(=O)c3cnn(Cc4ccc(F)cc4)c3)CC2COc2cccc(C3CCC(F)(F)CC3)c2C(=O)O)C1` (stereo partly drawn) [Compound I-128, 2-(4,4-difluorocyclohexyl)-6-((2-((S)-2,2-dimethylcyclopropane-1-carbonyl)-6-(1-(4-fluorobenzyl)-1H-pyrazole-4-carbonyl)-2,6-diazaspiro[3.4]octan-8-yl)methoxy)benzoic acid]: > 10 µM, > 10 µM and ≤ 0.5 µM.
The like results for `CC1(C)C[C@@H]1C(=O)N1CC2(CN(C(=O)c3cnn(Cc4ccc(F)cc4)c3)CC2COc2cccc(CC3CCC(F)(F)CC3)c2C(=O)O)C1` (stereo partly drawn) [Compound I-129] were, in that order, > 10 µM, > 10 µM and ≤ 0.5 µM.
Turning to `CC1(C)C[C@@H]1C(=O)N1CC2(CN(C(=O)c3cnn(Cc4ccc(F)cc4)c3)CC2COc2cccc(OC3CCC(F)(F)CC3)c2C(=O)O)C1` (stereo partly drawn) [Compound I-130, 2-((4,4-difluorocyclohexyl)oxy)-6-((2-((S)-2,2-dimethylcyclopropane-1-carbonyl)-6-(1-(4-fluorobenzyl)-1H-pyrazole-4-carbonyl)-2,6-diazaspiro[3.4]octan-8-yl)methoxy)benzoic acid], the figures for the IC50 in the assay on Kuramochi cells RB-KO, in the assay on Kuramochi cells RB-WT and at CDK2/Cyclin E1 were > 10 µM, > 10 µM and ≤ 0.5 µM, respectively.
With `CC(C)(C(=O)N1CC2(CN(C(=O)c3cnn(Cc4ccc(F)cc4)c3)C[C@H]2COCc2cccc(N3CCC(C(F)(F)F)CC3)c2C(=O)O)C1)C(F)(F)F` [I′-19, (S)-2-(((6-(1-(4-fluorobenzyl)-1H-pyrazole-4-carbonyl)-2-(3,3,3-trifluoro-2,2-dimethylpropanoyl)-2,6-diazaspiro[3.4]octan-8-yl)methoxy)methyl)-6-(4-(trifluoromethyl)piperidin-1-yl)benzoic acid], the values for the IC50 with Kuramochi cells RB-KO, in the assay with Kuramochi cells RB-WT and on CDK2/Cyclin E1 were > 10 µM, 0.5 to 5 µM and ≤ 0.5 µM, respectively.
The like results for `CC(C)(C(=O)N1CC2(CN(C(=O)c3cnn(Cc4ccc(F)cc4)c3)C[C@H]2COCc2c(C(F)(F)F)ccc(C3CCC(F)(F)CC3)c2C(=O)O)C1)C(F)(F)F` [I′-20] were, in that order, > 10 µM, 5 to 10 µM and ≤ 0.5 µM.
The like results for `CC(C)(C(=O)N1CC2(CN(C(=O)c3cnn(Cc4ccc(F)cc4)c3)C[C@H]2COCc2ccc(F)c(C3CCC(F)(F)CC3)c2C(=O)O)C1)C(F)(F)F` [I′-21] were, in that order, > 10 µM, > 10 µM and ≤ 0.5 µM.
Turning to `CC(C)(C(=O)N1CC2(CN(C(=O)c3cnn(Cc4ccc(F)cc4)c3)C[C@H]2COCc2cccc(C3CCC(F)(F)CC3)c2C(=O)NCCN2CCOCC2)C1)C(F)(F)F` [I′-22], the figures for the IC50 in the assay on Kuramochi cells RB-KO, in the assay with Kuramochi cells RB-WT and at CDK2/Cyclin E1 were > 10 µM, > 10 µM and ≤ 0.5 µM, respectively.
In the case of `CC(C)(C(=O)N1CC2(CN(C(=O)c3cnn(Cc4ccc(F)cc4)c3)C[C@H]2COCc2cccc(C3CCC(C(F)(F)F)CC3)c2CC(=O)O)C1)C(F)(F)F` (stereo partly drawn) [I′-23, (S)-2-(2-(((6-(1-(4-fluorobenzyl)-1H-pyrazole-4-carbonyl)-2-(3,3,3-trifluoro-2,2-dimethylpropanoyl)-2,6-diazaspiro[3.4]octan-8-yl)methoxy)methyl)-6-(4-(trifluoromethyl)cyclohexyl)phenyl)acetic acid], the figures for the IC50 in the assay with Kuramochi cells RB-KO, in the assay on Kuramochi cells RB-WT and at CDK2/Cyclin E1 were > 10 µM, ≤ 0.5 µM and ≤ 0.5 µM, respectively.
As for `CC(C)(C(=O)N1CC2(CN(C(=O)c3cnn(Cc4ccc(F)cc4)c3)C[C@H]2COCc2cccc(C3CCC(F)(F)CC3)c2-c2nn[nH]n2)C1)C(F)(F)F` [I′-24], the figures for the IC50 in the assay with Kuramochi cells RB-KO, in the assay on Kuramochi cells RB-WT and at CDK2/Cyclin E1 were > 10 µM, 0.5 to 5 µM and ≤ 0.5 µM, respectively.
The like results for `CC1(C)C[C@@H]1C(=O)N1CC2(CN(C(=O)c3cnn(Cc4ccc(F)cc4)c3)C[C@H]2COCc2cccc(C3CCC(F)(F)CC3)c2C(=O)NCCN2CCOCC2)C1` [I′-25, 2-(4,4-difluorocyclohexyl)-6-((((S)-2-((S)-2,2-dimethylcyclopropane-1-carbonyl)-6-(1-(4-fluorobenzyl)-1H-pyrazole-4-carbonyl)-2,6-diazaspiro[3.4]octan-8-yl)methoxy)methyl)-N-(2-morpholinoethyl)benzamide] were, in that order, > 10 µM, > 10 µM and ≤ 0.5 µM.
Consider `CC(C)(C(=O)N1CC2(CN(C(=O)c3cnn(Cc4ccc(F)cc4)c3)C[C@H]2COCc2cccc(-c3csc(C(F)(F)F)c3)c2C(=O)O)C1)C(F)(F)F` [I′-26, (S)-2-(((6-(1-(4-fluorobenzyl)-1H-pyrazole-4-carbonyl)-2-(3,3,3-trifluoro-2,2-dimethylpropanoyl)-2,6-diazaspiro[3.4]octan-8-yl)methoxy)methyl)-6-(5-(trifluoromethyl)thiophen-3-yl)benzoic acid], for which the results for the IC50 in the assay on Kuramochi cells RB-KO, in the assay on Kuramochi cells RB-WT and at CDK2/Cyclin E1 were > 10 µM, ≤ 0.5 µM and ≤ 0.5 µM, respectively.
Turning to `CC(C)(C(=O)N1CC2(CN(C(=O)c3cnn(Cc4ccc(F)cc4)c3)C[C@H]2COCc2cccc(-c3cccc(C(F)(F)F)c3)c2C(=O)O)C1)C(F)(F)F` [I′-27, (S)-3-(((6-(1-(4-fluorobenzyl)-1H-pyrazole-4-carbonyl)-2-(3,3,3-trifluoro-2,2-dimethylpropanoyl)-2,6-diazaspiro[3.4]octan-8-yl)methoxy)methyl)-3′-(trifluoromethyl)-[1,1′-biphenyl]-2-carboxylic acid], the IC50 in the assay on Kuramochi cells RB-KO was > 10 µM; in the assay on Kuramochi cells RB-WT, 5 to 10 µM; at CDK2/Cyclin E1 it was ≤ 0.5 µM.
